Measured values reported in patent US20250041377A1, “PHARMACEUTICAL USE” (ENLITISA (SHANGHAI) PHARMACEUTICAL CO., LTD., priority 2018, published 2025).
Structures can show the parent of a compound that is named as a salt.

Experiments:
[1] = system: bleomycin-induced pulmonary fibrosis; experiment: Idiopathic pulmonary fibrosis (IPF) model; format: in vivo, Sprague Dawley rats; conditions: Day 29
Protocol: Experimental animals and grouping: 40 adult male Sprague Dawley rats, after 7 days of adaptive feeding, were divided into 4 groups: sham-operation group (Sham), IPF model group (no treatment; Model), test group (Compound B) and positive control group (Positive Control).
The test were administered Compound B, at a dose of 130 μg/rat, which was introduced by aerosolized inhalation. Oral administration of pirfenidone (Etuary®, Beijing Continent Pharmaceutical Co., Ltd., Beijing, China) as a 120 mg/kg single-bolus dose served as the positive control.
A pulmonary fibrosis model was established by intratracheal instillation of bleomycin. The rats were anaesthetised and placed on an operating table in the supine position, to expose the trachea. Bleomycin (5 mg/kg) saline solution was injected into the trachea through the gap between the tracheal cartilage rings. The sham-operation group were given an equal volume of normal saline. Shortly after administration, the rats were lifted vertically and were rotated, in order to evenly disperse the drug. Once the rats had recovered, after approximately 5 days, they were administrated the different drugs according to the plan for 28 days, consecutively.
The exhaust volume of the atomizing device was 0.15 mL per minute. The inhalation time for each rat was 1 minute.
At Day 29 following drug administration, rats were anesthetized by i.p. injection of chloral hydrate. After orbital blood collection, the rats were sacrificed. The thoracic cavity was quickly opened and the lung was collected for further analysis. The lung wet weight was measured, and the lung coefficient was calculated (lung wet weight/rat weight×1000). The tissue was stored in refrigerator at −80° C. for further use.
A piece of lung tissue was accurately weighed, and 9 times the weight of saline was added. Then, the tissue was homogenized and centrifuged for 10 minutes at 3000 rpm. The homogenate was used to detect the expression of the transformation growth factor (TGF-β1), tumor necrosis factor-α (TNF-α) and alpha-smooth muscle actin (α-SMA). Standard ELISA methods were used for the detection. The contents of malonaldehyde (MDA) and the activity of superoxide dismutase (SOD) in lung tissue were also detected.

ammonia induced cough = experiment: Antitussive experiment, ammonia induced cough method; format: in vivo, ICR mice
Protocol: 36 ICR mice were randomly divided into 3 groups according to their body weight, labelled a CMC-Na (Negative) control group, a dextromethorphan hydrobromide (Positive) control group and a Compound B (B) group. Each group contained 12 mice, with 6 males and 6 females in each.
Compound B was administered via atomization inhalation using a YLS-8A Multifunctional cough and sputum inducing device (Jinan Yiyan Science and Technology Co., Ltd.) (0.15 ml/min) for 1 minute, once daily for 5 days. And the positive control drug was administered once daily by intragastric administration at 10 mg/kg for 5 days.
The mice were placed in an inverted beaker 1, 2, and 4 hours after the last drug administration. 1 mL of aqueous ammonia (25.0 to 28.0%) was placed on top of a boiling water bath and was evaporated into the beaker.
The time for mice to receive ammonia exposure was determined by a method characterized by analyzing data immediately after one test or a batch of tests. The results of the previous analysis determined how to conduct the next test or batch of tests.
The difference between the logarithmic value of two adjacent time periods was 0.1.
The number of coughs within 1 minute was detected using a stethoscope. If a mouse coughed three or more times over one minute, this was labelled as called ‘cough’, and less than three times in one minute was labelled ‘cough free’.
The EDT50 was defined as the ammonia stimulating time at which half mice developed a “cough”, calculated by the equation: […]
(c equals the sum of r and x, r is the number of animals in each stimulating time group, x is the logarithm of stimulation time and n was the number of animals in each group). lg is a base 10 logarithmic value.
In Table 15, R is the EDT50 in treatment group divided by the EDT50 in the Control group expressed as a percentage.

[2] = lung tissue homogenate, Compound B 130 μg/rat aerosolized inhalation, pirfenidone gavage, 28 days

| SMILES | TGF-β1 [1, 2] [ng/mg protein] | TNF-α [1, 2] [pg/mg protein] | α-SMA [1, 2] [pg/mg protein] | MDA ([1]; lung tissue) [U/mg protein] | SOD ([1]; lung tissue) [U/mg protein] | R (ammonia induced cough; 1 hour after admin., EDT50 in treatment group divided by EDT50 in Control group) [%] | EDT50 (ammonia induced cough; 1 hour after last administration, B 195 μg/mouse atomization inhalation, Positive 10 mg/kg intragastric, once daily 5 days) [s] | R (ammonia induced cough; 2 hours after admin., EDT50 treatment/Control) [%] | EDT50 (ammonia induced cough; 2 hours after last administration) [s] | R (ammonia induced cough; 4 hours after admin., EDT50 treatment/Control) [%] | EDT50 (ammonia induced cough; 4 hours after last administration) [s] |
| --- | --- | --- | --- | --- | --- | --- | --- | --- | --- | --- | --- |
| Cc1ccc(=O)n(-c2ccccc2)c1 [Positive Control, pirfenidone, reference compound] | 0.41 ± 0.03 | 208.41 ± 17.73 | 10.98 ± 0.93 | 0.24 ± 0.05 | 48.59 ± 2.36 | – | – | – | – | – | – |
| COc1ccc2c(c1)[C@]13CCCC[C@@H]1[C@H](C2)N(C)CC3 [Positive, dextromethorphan hydrobromide, reference compound] | – | – | – | – | – | 241.7 | 50.1 | 207.3 | 44.7 | 184.8 | 41.4 |
